From ChEMBL document CHEMBL3507680, “University of Dundee, Gates Library screen for HepG2 cell viability”

Assay: Human HepG2 cell viability assay in 384 well format
Format: toxicity, cell-based
Set-up: dose 125 nL, time 70.5 hour; concentration not given beside the values
Details: HepG2 cells, read-out: Inhibition

Structure (SMILES) | cytotoxicity at 70.5 h
COC(=O)CNc1cc(C(=O)NCC(F)(F)F)cc(F)c1C | -2.26%
CC(C)C1CN(c2nccc(N)n2)CCC(=O)N1Cc1ccc(F)cc1 (configuration not stated) | -8.72%
CS(=O)(=O)c1ccc(CNC[C@H]2COCc3nc4ccccc4n32)cc1 | 5.94%
COc1ccc(CC(C)(O)CNC(=O)NCc2cccs2)cc1 (configuration not stated) | -13.9%
Cc1c(NC(=O)NCCO)cccc1OC1CCCC1 | -8.09%
NC(=O)c1cccnc1N1C[C@@H]2CC[C@H](C1)N(Cc1ccccn1)C2=O | 5.12%
O=C(O)c1ccnc(-c2ccnc(COc3cccc(F)c3)n2)c1 | 16.7%
CSCC(C)(O)CNS(=O)(=O)Cc1ccc(F)cc1 (configuration not stated) | -11.7%
Cc1noc(CNc2cc3c(cc2Cl)NC(=O)CO3)n1 | -10.2%
Cn1cnnc1CNC(=O)Nc1cc(C(F)(F)F)c[nH]c1=O | -7.22%
CCn1cnnc1CNC(=O)N1CCN(c2cccc(C)c2)CC1 | -7.02%
CC1(Cc2ccc3c(c2)OCO3)CCCN(S(=O)(=O)N2CCCC2)C1 (configuration not stated) | 0.304%
COc1cccc(CN(C)C(=O)c2csc(-c3nnc[nH]3)n2)c1 | -1.87%
COc1ccc(CCC2CCCN(CC(=O)O)C2)cc1 (configuration not stated) | -6.84%
CNC(=O)CN1CCOCC2(CCCN(Cc3ccsc3)C2)C1 (configuration not stated) | -19.5%
Cn1cccc1C(=O)N[C@@H]1CN(CC2CC2)[C@@H]2COC[C@@H]21 | -5.94%
CCC(C)NC(=O)Cn1c(Nc2cc(C)cc(C)c2)nc(C)cc1=O (configuration not stated) | 0.214%
Cc1nc2[nH]cnc(NCCCN3CCOCC3)c-2n1 | -6.34%
Cc1ccccc1C1(CNC(=O)NC(C)c2nncn2C)CC1 (configuration not stated) | -2.77%

Structure (SMILES) | cytotoxicity at 70.5 h
NC(=O)C1CCCN1C1CCN(C(=O)c2cccc3c2OCO3)CC1 (configuration not stated) | -0.518%
CCCS(=O)(=O)N1C[C@@H]2CN(Cc3ccoc3)CCO[C@@H]2C1 | 6.66%
c1ccc(C2CN(C3CC3)CC3(CCN(Cc4cscn4)CC3)C2)cc1 (configuration not stated) | -5.25%
Cc1cc(-n2nc(C3CC3)nc2-c2csnn2)ccn1 | -10.1%
Cc1cc(NCc2cc3n(n2)CCCN(C(=O)N(C)C)C3)ncn1 | -12.5%
COCC(=O)N1CCN(C)C(=O)C(Cc2ccccc2-c2cccs2)C1 (configuration not stated) | 1.61%
Cc1nc(CN2C[C@@H]3OCCN(c4ncc(F)cn4)[C@@H]3C2)cs1 | -11.3%
CC(C)S(=O)(=O)CCN1CCN(C(C#N)c2ccccc2)CC1 (configuration not stated) | -7.44%
Cc1cnc(C(=O)NC(CN2CCCC2=O)c2ccccc2)cn1 (configuration not stated) | -1.21%
COC(=O)CN1CC2(CCNCC2)COc2ccccc2S1(=O)=O | 6.67%
Cc1cccc(CN2C[C@@H]3CN(C(=O)c4cnoc4C)C[C@@H]3C2=O)n1 | -5.42%
COC(=O)CCC(=O)NC1CCCc2cc(OC(F)F)ccc21 (configuration not stated) | -13%
Cn1cc(N2CCCC(SCc3ccco3)C2=O)cn1 (configuration not stated) | 14.8%
CN1C[C@@H]2CN(C(=O)C3CCOC3)C[C@@H]2C1=O (some centres not stated) | 9.81%
COC(=O)CC1CCN(C(=O)Nc2ccc(-c3ccn[nH]3)cc2)C1 (configuration not stated) | 1.65%
CCC(NC(=O)CN(C)Cc1ccc(C)o1)c1ccc(C)cc1 (configuration not stated) | -10.3%
Cc1noc(C)c1CN1C[C@@H]2CN(C(=O)c3cscn3)C[C@@H]2C1 | -2.29%
O=C1CCC2(CCOC2)CN1Cc1ccc2nsnc2c1 (configuration not stated) | -3.21%
Cc1nc(C)c(CC(=O)N2C[C@@H](C(=O)O)[C@H](c3ccncc3)C2)s1 | -0.442%

Structure (SMILES) | cytotoxicity at 70.5 h
CC(C)Cn1ncc2cc(C(=O)N(C)CCc3ccccc3)cnc21 | -8.96%
O=C1COC2(CCN(c3ncccn3)CC2)CN1 | -1.8%
CC1c2ncc(COCC3CCOCC3)n2CCN1S(C)(=O)=O (configuration not stated) | -1.95%
O=C(CSC1CCCC1)N1CCN(C(=O)C2CC2c2ccccc2)CC1 (configuration not stated) | -3.24%
Cc1ccncc1C(=O)N1CCCC(C(=O)CCc2ccccc2)C1 (configuration not stated) | -7.97%
CCNc1ncc(C(=O)NCc2ccc(F)c(C(F)(F)F)c2)cn1 | 20.6%
Cc1ccc(C)c(OC(C)C(=O)NCCNc2cccnc2)c1 (configuration not stated) | -0.127%
Cc1ccnn1CCC(=O)N1CCC(c2cnccn2)CC1 | -7.09%
CCOCCCNC(=O)CN(c1ccc(C)c(C)c1)S(C)(=O)=O | -9.65%
O=C(c1cc(F)ccc1F)C1CCN(C(=O)c2ccco2)CC1 | -3.7%
CN(Cc1ccccc1)c1ncccc1CNC1CCSCC1 | -2.31%
COCCN1CCN(CC(=O)NC2(C#N)CCCC2)CC1C (configuration not stated) | 7.99%
O=C(Cn1cccnc1=O)NCCc1ccc2c(c1)OCCO2 | 5.28%
O=C(NCC(=O)N1CCCC(n2cncn2)C1)OCc1ccccc1 (configuration not stated) | -0.265%
COCC(O)CN1CCC(=O)N(CC=C(C)C)Cc2ccccc21 (configuration not stated) | -6.53%
CN(Cc1cc(C[C@@H]2C[C@H](N)C2(C)C)no1)c1ccccc1 | -5.24%
Cn1ccc2c(-c3ccc(NC4CC4)nn3)ccnc21 | -5.5%
Cc1cnn(CC(C)NCc2ccc(OCc3noc(C)n3)cc2)c1 (configuration not stated) | -0.0911%
Cn1cnnc1C1CCCN(C(=O)c2ccc3c(c2)OCCO3)C1 (configuration not stated) | -4.4%
